This is an account of results in patent EP0923548B1, “4-A[…] AS DOPAMIN D2 AGONISTS AND AS 5HT 1A LIGANDS” (Wyeth, priority 1996, dated 1998).

The structures appear in SMILES notation.

This experiment addresses T1, dopamine autoreceptor (Rattus norvegicus, UniProt P61169).
T1 construct: homogenized rat striatal brain tissue; from tissue; host or cells: rat striatal brain tissue homogenate
The experiment is described as follows: Dopamine autoreceptor affinity, 3H-quinpirole binding in homogenized rat striatal brain tissue. As to conditions: for Ratio ant/agonist: ratio of D2 Spiper IC50 to D2 Quin. IC50 (LowAg/HighAg, predicts intrinsic activity). On the procedure: Affinity for the dopamine autoreceptor was established by a modification of the standard experimental test procedure of Seemen and Schaus, European Journal of Pharmacology 203, 105-109 (1991), wherein homogenized rat striatal brain tissue is incubated with ^3H-quinpirole (Quin.)and various concentrations of test compound, filtered and washed and counted in a Betaplate scintillation counter.

T1 sequence (P61169 whole entry): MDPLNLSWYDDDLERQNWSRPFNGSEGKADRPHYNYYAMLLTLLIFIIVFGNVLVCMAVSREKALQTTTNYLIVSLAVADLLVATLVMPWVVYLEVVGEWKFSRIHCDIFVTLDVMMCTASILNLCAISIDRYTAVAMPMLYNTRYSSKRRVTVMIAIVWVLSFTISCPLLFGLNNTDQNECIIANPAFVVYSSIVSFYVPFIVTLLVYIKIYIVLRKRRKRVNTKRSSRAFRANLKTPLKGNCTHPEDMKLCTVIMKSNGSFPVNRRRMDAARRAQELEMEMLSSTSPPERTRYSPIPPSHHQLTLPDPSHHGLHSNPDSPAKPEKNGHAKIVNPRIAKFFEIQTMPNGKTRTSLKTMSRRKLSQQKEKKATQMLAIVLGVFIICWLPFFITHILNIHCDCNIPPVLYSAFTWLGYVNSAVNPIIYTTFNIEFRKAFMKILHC

In the case of `c1ccc(CCCCNCCOc2cccc3[nH]ccc23)cc1` [(1a), [2-(1H-Indol-4-yloxy)-ethyl]-(4-phenyl-butyl)-amine], the 50% inhibitory concentration (IC50) (commonly the point on the concentration scale where inhibition reaches its midpoint) is 10.5 nM and the Ratio ant/agonist is recorded as 18.
Taken in the same sequence, the figures for `Clc1ccc(OCCNCc2ccccc2)c2cc[nH]c12` [(1b), Benzyl-[2-(7-chloro-1H-indol-4-yloxy)-ethyl]-amine] were 14.9 nM and 12.
On the same counts, the results for `Clc1ccc(OCCNCc2ccccc2)c2c(Cl)c[nH]c12` [(1c), Benzyl-[2-(3,7-dichloro-1H-indol-4-yloxy)-ethyl]-amine] are 13.6 nM and 21.
On the same counts, the results for `Clc1ccc(OCCNCc2cccs2)c2c(Cl)c[nH]c12` [(1f), Thien-2-ylmethyl-[2-(3,7-dichloro-1H-indol-4-yloxy)-ethyl]-amine] are 22.5 nM and 18.
As to `Clc1c[nH]c2cccc(OCCNCCCCc3ccccc3)c12` [(2a), [2-(3-Chloro-1H-indol-4-yloxy)-ethyl]-(4-phenyl-butyl)-amine], the IC50 was determined as 9.55 nM and the Ratio ant/agonist was 20.
On to `O=C(c1c[nH]c2cccc(OCCNCc3ccccc3)c12)C(F)(F)F` [(3a), 1-[4-(2-Benzylamino-ethoxy)-1H-indol-3-yl]-2,2,2-trifluoro-ethanone], for which the IC50 came to 5.93 nM and the Ratio ant/agonist is 48.
On the same counts, the results for `c1ccc(CNCCOc2cccc3[nH]ccc23)cc1` [(3b), N-Benzyl-[2-(1H-indol-4-yloxy)]-ethylamine] are 19.4 nM and 26.
